Reference: patent US20190209528A1, “MEDICINAL DRUG, METHOD, USE, AND COMPOUND FOR PREVENTING OR CURING LEUKEMIA ASSOCIATED WITH MLL” (FUJIFILM Corporation, priority 2016, published 2019)

Tests used:
[1] = tested on: MLL fusion gene (MLL-AF9) leukemia cells; assay: Mouse acute myelogenous leukemia model with MLL fusion gene (MLL-AF9) introduced (Test Example 1); format: in vivo
Method: (§1) Hereinafter, Test examples 1 and 2 will be described. Test Example 1 and 2 were carried out with reference to J Clin Invest., 2013 Sep. 3, 123(9): 3876 to 3888; and Blood, 1 Sep. 2011, Volume 118, 2541 to 2550.
A mouse acute myelogenous leukemia (AML) model into which the MLL fusion gene (MLL-AF9) inducing cancer was introduced, was prepared. Specifically, bone marrow cells were collected from a C57BL/6-Ly5.1 mouse (Sankyo Labo Service Corporation, INC., hereinafter the same applies), and hematopoietic stem precursor cells were isolated using CD117 MicroBeads. MLL-AF9 marked with GFP (green fluorescent protein) was introduced into these cells using a virus. This MLL-AF9-introduced cells were transplanted to the same strain (C57BL/6) mouse (Japan SLC, Inc., hereinafter the same applies), and GFP-positive leukemia cells were collected from the mouse spleens that developed leukemia. These cells were subjected to second, third, and fourth transplantations, and after the fourth transplantation, MLL fusion gene (MLL-AF9) leukemia cells causing all the mice to develop leukemia in about 2 weeks were collected.
These MLL fusion gene (MLL-AF9) leukemia cells 1×10^6/mouse were injected into the C57BL/6 mouse from the tail vein. On day 4 after the day of injection, 0.5% methylcellulose suspension of 5-hydroxy-1H-imidazole-4-carboxamide-3/4 hydrate (medicine) was administered orally to the mouse once per day at 160 mg/kg (in terms of free base) on Monday (day 4), Wednesday (day 6), and Friday (day 8), and this administration was continued during the survival period of the mouse.

[2] = tested on: p53-deleted MLL fusion gene (MLL-AF9) leukemia cells; assay: Mouse acute myelogenous leukemia model, MLL-AF9 leukemia cells with the p53 gene deleted (Test Example 2); format: in vivo
Method: as §1
In the case where the survival period was extended depending on the function of a p53 gene, there is a concern that clinical usefulness may be limited. For this reason, the MLL fusion gene (MLL-AF9) leukemia cells were prepared in the same manner as in Test Example 1 by using mice in which the p53 gene was deleted.

[3] = tested on: leukemia associated with MLL (MLL-ENL); settings: FIG. 3 and FIG. 5 of Genes & development, Vol. 23, pp. 877 to 889, 2009; cited from earlier work

| Structure (SMILES) | longest survival in medicine-administered group (FIG. 1) ([1]; 160 mg/kg orally Mon/Wed/Fri from day 4) | survival period of medicine-administered group (FIG. 1) ([1]; 160 mg/kg orally Mon/Wed/Fri from day 4, control mice all died in about 20 days) | survival period versus non-administered group ([1]; C57BL/6 mouse, 1x10^6 MLL-AF9 leukemia cells via tail vein, 160 mg/kg (free base) orally once per day Mon/Wed/Fri from day 4, log-rank test significant) | proliferation of GFP+ cells in the peripheral blood (FIG. 2) ([1]; day 10 after injection of leukemia cells, Mann-Whitney's U test significant versus control) | longest survival in medicine-administered group (FIG. 3) [2] | survival period of medicine-administered group (FIG. 3) ([2]; control mice died in less than 20 days) | proliferation of GFP+ cells in the peripheral blood (FIG. 4) ([2]; day 19 after injection of leukemia cells) | survival period versus non-administered group, p53-deleted leukemia cells ([2]; same manner as Test Example 1) | efficacy of existing chemotherapy in leukemia associated with MLL [3] |
| --- | --- | --- | --- | --- | --- | --- | --- | --- | --- |
| NC(=O)c1nc[nH]c1O [5-hydroxy-1H-imidazole-4-carboxamide-3/4 hydrate] | up to 40 days | ≥ 30 days | significant extension of the survival period | proliferation of GFP+ cells was suppressed | ≥ 40 days | ≥ 20 days | proliferation of GFP+ cells was suppressed | extension of the survival period according to the present invention does not depend on the p53 gene |  |
| Nc1ccn([C@@H]2O[C@H](CO)[C@@H](O)[C@@H]2O)c(=O)n1 [cytarabine] |  |  |  |  |  |  |  |  | not effective |
| COc1cccc2c1C(=O)c1c(O)c3c(c(O)c1C2=O)C[C@@](O)(C(=O)CO)C[C@@H]3O[C@H]1C[C@H](N)[C@H](O)[C@H](C)O1 [doxorubicin] |  |  |  |  |  |  |  |  | not effective |
